Patent US9062046B2, “Substituted imidazoquinoline derivatives as kinase inhibitors” (Piramal Enterprises Limited, priority 2011, dated 2015)

What was measured:
[1] = test system: A2780 (ovarian cell line); experiment: Cytotoxicity assay (propidium iodide assay), A2780; type: cell-based; details: Homo sapiens, A2780 cells, 48 h treatment
Experimental: (§1) The assay was designed as in the reference, Anticancer Drugs, 2002, 13, 1-8, the disclosure of which is incorporated by reference for the teaching of the assay.
(§2) Cells from cell lines A2780 (ovarian cell line) and PC3 (prostate cell line) (both from ATCC) were seeded at a density of 3000 cells/well in a white opaque 96-well plate. Following incubation at 37° C./5% CO2 for a period of 18-24 h, the cells were treated with various concentrations (stock solution was prepared in DMSO and subsequent dilutions were made in media as per ATCC guidelines) of the test compounds for a period of 48 h. At the end of treatment, the culture medium was discarded, the cells were washed with 1×PBS and 200 μl of 7 μg/ml propidium iodide was added to each well. The plates were frozen at −70° C. overnight. For analysis, the plates were warmed to RT, allowed to thaw and were read in PoleStar fluorimeter with the fluorescence setting. The percentage of viable cells in the non-treated set of wells was considered to be 100 and the percentage viability following treatment was calculated accordingly. IC50 values were calculated from graphs plotted using these percentages.

PC3 (prostate cell line) = experiment: Cytotoxicity assay (propidium iodide assay), PC3; type: cell-based; details: Homo sapiens, PC-3, PC3 cells, 48 h treatment
Experimental: as §1, §2

Row | Compound | inhibition at 1 µM [1] | inhibition at 1 µM (PC3 (prostate cell line)) | IC50 [1] | IC50 (PC3 (prostate cell line))
1 | Cn1c(=NC#N)n(-c2ccc(C(C)(C)C#N)nc2)c2c3cc(-c4ccc5ncccc5c4)ccc3ncc21 [Example 56, N-(1-(6-(2-cyanopropan-2-yl)pyridin-3-yl)-3-methyl-8-(quinolin-6-yl)-1H-imidazo[4,5-c]quinolin-2(3H)-ylidene)cyanamide] | ≥ 70% | 30 to 70% |  | 
2 | COc1cc(-c2ccc3ncc4c(c3c2)n(-c2ccc(C(C)(C)C#N)nc2)c(=NC#N)n4C)cc(OC)c1OC [Example 57, N-(1-(6-(2-cyanopropan-2-yl)pyridin-3-yl)-3-methyl-8-(3,4,5-trimethoxyphenyl)-1H-imidazo[4,5-c]quinolin-2(3H)-ylidene)cyanamide] | ≥ 70% | 30 to 70% |  | 
3 | Cn1c(=NC#N)n(-c2ccc(C(C)(C)C#N)nc2)c2c3cc(-c4ccc5ccccc5c4)ccc3ncc21 [Example 62, N-(1-(6-(2-cyanopropan-2-yl)pyridin-3-yl)-3-methyl-8-(naphthalen-2-yl)-1H-imidazo[4,5-c]quinolin-2(3H)-ylidene)cyanamide] | 30 to 70% | 30 to 70% |  | 
4 | Cn1c(=NC#N)n(-c2ccc(C(C)(C)C#N)nc2)c2c3cc(-c4cc(F)cc(F)c4)ccc3ncc21 [Example 63, N-(1-(6-(2-cyanopropan-2-yl)pyridin-3-yl)-8-(3,5-difluorophenyl)-3-methyl-1H-imidazo[4,5-c]quinolin-2(3H)-ylidene)cyanamide] | 30 to 70% | < 30% |  | 
5 | Cn1c(=NC#N)n(-c2ccc(C(C)(C)C#N)nc2)c2c3cc(-c4cccnc4F)ccc3ncc21 [Example 64, N-(1-(6-(2-cyanopropan-2-yl)pyridin-3-yl)-8-(2-fluoropyridin-3-yl)-3-methyl-1H-imidazo[4,5-c]quinolin-2(3H)-ylidene)cyanamide] | 30 to 70% | < 30% |  | 
6 | CC(C)Oc1ccccc1-c1ccc2ncc3c(c2c1)n(-c1ccc(C(C)(C)C#N)nc1)c(=NC#N)n3C [Example 65, N-(1-(6-(2-cyanopropan-2-yl)pyridin-3-yl)-8-(2-isopropoxyphenyl)-3-methyl-1H-imidazo[4,5-c]quinolin-2(3H)-ylidene)cyanamide] | < 30% | < 30% |  | 
7 | COc1ccc(-c2ccc3ncc4c(c3c2)n(-c2ccc(C(C)(C)C#N)nc2)c(=NC#N)n4C)cc1OC [Example 66, N-(1-(6-(2-cyanopropan-2-yl)pyridin-3-yl)-8-(3,4-dimethoxyphenyl)-3-methyl-1H-imidazo[4,5-c]quinolin-2(3H)-ylidene)cyanamide] | ≥ 70% | ≥ 70% |  | 
8 | Cc1ccc(-c2ccc3ncc4c(c3c2)n(-c2ccc(C(C)(C)C#N)nc2)c(=NC#N)n4C)cc1 [Example 67, N-(1-(6-(2-cyanopropan-2-yl)pyridin-3-yl)-3-methyl-8-p-tolyl-1H-imidazo[4,5-c]quinolin-2(3H)-ylidene)cyanamide] | 30 to 70% | 30 to 70% |  | 
9 | Cn1c(=NC#N)n(-c2ccc(C(C)(C)C#N)nc2)c2c3cc(-c4ccc(C(F)(F)F)cc4)ccc3ncc21 [Example 68, N-(1-(6-(2-cyanopropan-2-yl)pyridin-3-yl)-3-methyl-8-(4-(trifluoromethyl)phenyl)-1H-imidazo[4,5-c]quinolin-2(3H)-ylidene)cyanamide] | 30 to 70% | < 30% |  | 
10 | Cn1c(=NC#N)n(-c2ccc(C(C)(C)C#N)nc2)c2c3cc(-c4cccc(C(F)(F)F)c4)ccc3ncc21 [Example 69, N-(1-(6-(2-cyanopropan-2-yl)pyridin-3-yl)-3-methyl-8-(3-(trifluoromethyl)phenyl)-1H-imidazo[4,5-c]quinolin-2(3H)-ylidene)cyanamide] | ≥ 70% | 30 to 70% |  | 
11 | Cn1c(=NC#N)n(-c2ccc(C(C)(C)C#N)nc2)c2c3cc(-c4cncc(CNC(=O)OC(C)(C)C)c4)ccc3ncc21 [Example 71, tert-butyl (5-(2-(cyanoimino)-1-(6-(2-cyanopropan-2-yl)pyridin-3-yl)-3-methyl-2,3-dihydro-1H-imidazo[4,5-c]quinolin-8-yl)pyridin-3-yl)methylcarbamate] | < 30% | < 30% |  | 
12 | Cn1c(=NC#N)n(-c2ccc(C(C)(C)C#N)nc2)c2c3cc(-c4ccc(N5CCN(C(=O)OC(C)(C)C)CC5)nc4)ccc3ncc21 [Example 72, tert-butyl 4-(5-(2-(cyanoimino)-1-(6-(2-cyanopropan-2-yl)pyridin-3-yl)-3-methyl-2,3-dihydro-1H-imidazo[4,5-c]quinolin-8-yl)pyridin-2-yl)piperazine-1-carboxylate] | < 30% | < 30% |  | 
13 | Cn1c(=NC#N)n(-c2ccc(C(C)(C)C#N)nc2)c2c3cc(-c4ccc(F)cc4)ccc3ncc21 [Example 80, N-(1-(6-(2-cyanopropan-2-yl)pyridin-3-yl)-8-(4-fluorophenyl)-3-methyl-1H-imidazo[4,5-c]quinolin-2(3H)-ylidene)cyanamide] | ≥ 70% | 30 to 70% |  | 
14 | Cn1c(=NC#N)n(-c2ccc(C(C)(C)C#N)nc2)c2c3cc(-c4ccncc4)ccc3ncc21 [Example 81, N-(1-(6-(2-cyanopropan-2-yl)pyridin-3-yl)-3-methyl-8-(pyridin-4-yl)-1H-imidazo[4,5-c]quinolin-2(3H)-ylidene)cyanamide] |  |  | ≤ 0.5 µM | ≤ 0.5 µM
15 | Cn1c(=NC#N)n(-c2ccc(C(C)(C)C#N)nc2)c2c3cc(-c4cccc5ccccc45)ccc3ncc21 [Example 82, N-(1-(6-(2-cyanopropan-2-yl)pyridin-3-yl)-3-methyl-8-(naphthalen-1-yl)-1H-imidazo[4,5-c]quinolin-2(3H)-ylidene)cyanamide] | 30 to 70% | < 30% |  | 
16 | CC(C)(C#N)c1ccc(-n2c(=NC#N)[nH]c3cnc4ccc(-c5cnc(N)c(C(F)(F)F)c5)cc4c32)cc1 [Example 83, N-(8-(6-amino-5-(trifluoromethyl)pyridin-3-yl)-1-(4-(2-cyanopropan-2-yl)phenyl)-1H-imidazo[4,5-c]quinolin-2(3H)-ylidene)cyanamide] | ≥ 70% | 30 to 70% |  | 
17 | COc1ncc(-c2ccc3ncc4c(c3c2)n(-c2ccc(C(C)(C)C#N)cc2)c(=NC#N)n4C)cc1N [Example 84, N-(8-(5-amino-6-methoxypyridin-3-yl)-1-(4-(2-cyanopropan-2-yl)phenyl)-3-methyl-1H-imidazo[4,5-c]quinolin-2(3H)-ylidene)cyanamide] | ≥ 70% | ≥ 70% |  | 
18 | CC(C)(C#N)c1ccc(-n2c(=NC#N)[nH]c3cnc4ccc(-c5cccnc5)cc4c32)cc1 [Example 85, N-(1-(4-(2-cyanopropan-2-yl)phenyl)-8-(pyridin-3-yl)-1H-imidazo[4,5-c]quinolin-2(3H)-ylidene)cyanamide] | < 30% | < 30% |  | 
19 | CCn1c(=NC#N)n(-c2ccc(C(C)(C)C#N)cc2)c2c3cc(-c4cccnc4)ccc3ncc21 [Example 86, N-(1-(4-(2-cyanopropan-2-yl)phenyl)-3-ethyl-8-(pyridin-3-yl)-1H-imidazo[4,5-c]quinolin-2(3H)-ylidene)cyanamide] | ≥ 70% | 30 to 70% |  | 
20 | Cn1c(=NC#N)n(-c2ccc(C(C)(C)C#N)cc2)c2c3cc(-c4cc(C(F)(F)F)ccc4F)ccc3ncc21 [Example 87, N-(1-(4-(2-cyanopropan-2-yl)phenyl)-8-(2-fluoro-5-(trifluoromethyl)phenyl)-3-methyl-1H-imidazo[4,5-c]quinolin-2(3H)-ylidene)cyanamide] | 30 to 70% | < 30% |  | 
21 | COc1cc(-c2ccc3ncc4c(c3c2)n(-c2ccc(C(C)(C)C#N)cc2)c(=NC#N)n4C)cc(OC)c1OC [Example 88, N-(1-(4-(2-cyanopropan-2-yl)phenyl)-3-methyl-8-(3,4,5-trimethoxyphenyl)-1H-imidazo[4,5-c]quinolin-2(3H)-ylidene)cyanamide] | ≥ 70% | 30 to 70% |  | 
22 | Cn1c(=NC#N)n(-c2ccc(C(C)(C)C#N)cc2)c2c3cc(C4=CCN(C(=O)OC(C)(C)C)CC4)ccc3ncc21 [Example 89, tert-butyl 4-(2-(cyanoimino)-1-(4-(2-cyanopropan-2-yl)phenyl)-3-methyl-2,3-dihydro-1H-imidazo[4,5-c]quinolin-8-yl)-5,6-dihydropyridine-1(2H)-carboxylate] | 30 to 70% | < 30% |  | 
23 | Cn1c(=NC#N)n(-c2ccc(C(C)(C)C#N)cc2)c2c3cc(-c4ccc(N5CCOCC5)nc4)ccc3ncc21 [Example 90, N-(1-(4-(2-cyanopropan-2-yl)phenyl)-3-methyl-8-(6-morpholinopyridin-3-yl)-1H-imidazo[4,5-c]quinolin-2(3H)-ylidene)cyanamide] | ≥ 70% | 30 to 70% |  | 
24 | COc1ccc(-c2ccc3ncc4c(c3c2)n(-c2ccc(C(C)(C)C#N)cc2)c(=NC#N)n4C)cn1 [Example 91, N-(1-(4-(2-cyanopropan-2-yl)phenyl)-8-(6-methoxypyridin-3-yl)-3-methyl-1H-imidazo[4,5-c]quinolin-2(3H)-ylidene)cyanamide] |  |  | ≤ 0.5 µM | ≤ 0.5 µM
25 | Cn1c(=NC#N)n(-c2cncc(-c3ccccc3)c2)c2c3cc(-c4cnc(N)c(C(F)(F)F)c4)ccc3ncc21 [Example 92, N-(8-(6-amino-5-(trifluoromethyl)pyridin-3-yl)-3-methyl-1-(5-phenylpyridin-3-yl)-1H-imidazo[4,5-c]quinolin-2(3H)-ylidene)cyanamide] |  |  | ≤ 0.5 µM | ≤ 0.5 µM
